Tests used:
[1] = system: murine leukemia; assay: murine leukemia model, ascites cells implanted i.p. in mice (Table I); format: in vivo, murine (CFD1+ mice); settings: for Effect MST % T/C: >125 considered significant; for MST (median survival time): control 6.5
Source text: Tumor Inoculum: 10^6 ascites cells implanted i.p.
Evaluation: MST = median survival time
Effect: % T/C = (MST treated/MST control) × 100.

[2] = system: L-1210 Leukemia; assay: tumor cell growth in culture, L-1210 Leukemia; format: cell-based; settings: Mus musculus, L1210, testing at Roswell Park Memorial Institute
Source text: (§1) on Tumor Cell Growth in Culture
(§2) ^a Testing performed at Roswell Park Memorial Institute. See proposal
(§3) for methodology and references.

[3] = system: Lewis lung carcinoma; assay: tumor cell growth in culture, Lewis lung carcinoma; format: cell-based; settings: testing at Roswell Park Memorial Institute
Source text: as §1, §2, §3

[4] = system: B-16 melanoma; assay: tumor cell growth in culture, B-16 melanoma; format: cell-based; settings: Mus musculus, B16, testing at Roswell Park Memorial Institute
Source text: as §1, §2, §3

[5] = system: DLD-1 human colon carcinoma; assay: tumor cell growth in culture, DLD-1 human colon carcinoma; format: cell-based; settings: testing at Brown University
Source text: as §1
^b Testing performed at Brown University. Cell lines and methodology

[6] = system: DNA synthesis in HeLa cells; assay: inhibition of DNA synthesis in HeLa cells; format: cell-based; settings: Homo sapiens, 1 h, 60 min
Protocol: (§4) Effects of Inhibitors on Synthesis of DNA and TTP in HeLa Cells
^a Measured, over a period of 60 min., as described in the Legend to […]

[7] = system: TTP formation in HeLa cells; assay: inhibition of TTP formation in HeLa cells; format: cell-based; settings: Homo sapiens, 0.5 h, 30 min
Protocol: as §4
^b HeLa cells were suspended for 30 min. in 2 ml. of minimal essentia
media containing 25 uCi of ^3 H--thymidine. Cells were lysed, carrier
nucleotides added and ^3 H--TTP isolated by thin layer chromatography

[8] = system: DNA synthesis; assay: cytotoxicity and effect on DNA, RNA and protein synthesis (Fig. I); format: cell-based
[9] = 2 mg/kg/inj IP, schedule qd 1 5
[10] = 4 mg/kg/inj IP, schedule qd 1 5
[11] = 8 mg/kg/inj IP, schedule qd 1 5
[12] = 16 mg/kg/inj IP, schedule qd 1 5

Cc1cn([C@H]2C[C@H](O)[C@@H](CO)O2)c(=O)n(C=CC=O)c1=O [XX-336, 3-(thymidin-3-yl)-prop-2-enal]
Effect MST % T/C [1, 9]: 123% | MST (median survival time) [1, 9]: 8.0 days | Effect MST % T/C [1, 10]: 123% | MST (median survival time) [1, 10]: 8.0 days | Effect MST % T/C ([1]; 8 mg/kg/inj IP, schedule d.1): 154% | MST (median survival time) ([1]; 8 mg/kg/inj IP, schedule d.1): 10.0 days | Effect MST % T/C [1, 11]: 146% | MST (median survival time) [1, 11]: 9.5 days | Effect MST % T/C ([1]; 16 mg/kg/inj IP, schedule d.1): 131% | MST (median survival time) ([1]; 16 mg/kg/inj IP, schedule d.1): 8.5 days | Effect MST % T/C [1, 12]: 146% | MST (median survival time) [1, 12]: 9.5 days | Effect MST % T/C ([1]; 32 mg/kg/inj IP, schedule d.1): 123% | MST (median survival time) ([1]; 32 mg/kg/inj IP, schedule d.1): 8.0 days | IC50 [2]: 1.6 µM | IC50 [3]: 5.9 µM | IC50 [4]: 4.2 µM | IC50 [5]: 5 µM | inhibition at 0.1 µM ([6]; 0.1 μM): 6% | inhibition at 0.3 µM ([6]; 0.3 μM): 38% | inhibition at 1 µM ([6]; 1.0 μM): 70% | inhibition at 2 µM ([6]; 2.0 μM): 88% | inhibition at 20 µM ([6]; 20.0 μM): 100% | inhibition at 0.1 µM ([7]; 0.1 μM): 6% | inhibition at 0.3 µM ([7]; 0.3 μM): 50% | inhibition at 1 µM ([7]; 1.0 μM): 75% | inhibition at 2 µM ([7]; 2.0 μM): 85% | inhibition at 20 µM ([7]; 20.0 μM): 95% | cytotoxicity associated with inhibition of DNA synthesis [8]: associated dominantly with the inhibition of DNA synthesis
